Reference: ChEMBL document CHEMBL1152853, “Synthesis and biological evaluation of novel symmetry bis-enediynes” (2009)
Active and inactive are the calls of the source. The calls are words filed in the database; no cut-off is given here.

Key:
[1] = test system: CCRF-CEM; assay: Cytotoxicity against human CCRF-CEM cells; assay type: functional
[2] = test system: M14; assay: Cytotoxicity against human M14 cells; assay type: functional
[3] = test system: SF-295; assay: Cytotoxicity against human SF295 cells; assay type: functional
[4] = test system: K562; assay: Inhibition of G2/M phase related Cyclin A protein expression in human K562 cells at 20 uM by Western blotting analysis; assay type: functional, cell-based
[5] = test system: CAKI-1; assay: Cytotoxicity against human Caki1 cells; assay type: functional
[6] = test system: SNB-75; assay: Cytotoxicity against human SNB75 cells; assay type: functional
[7] = test system: BT-549; assay: Cytotoxicity against human BT549 cells; assay type: functional
[8] = test system: DU-145; assay: Cytotoxicity against human DU145 cells; assay type: functional
[9] = test system: SN12C; assay: Cytotoxicity against human SN12C cells; assay type: functional
[10] = test system: MDA-MB-435; assay: Cytotoxicity against human MDA-MB-435 cells; assay type: functional
[11] = test system: SK-MEL-28; assay: Cytotoxicity against human SK-MEL-28 cells; assay type: functional
[12] = test system: K562; assay: Cell cycle arrest in human K562 cells assessed as accumulation in S phase at 20 uM after 24 hrs by flow cytometry analysis; assay type: functional
[13] = test system: K562; assay: Cytotoxicity against human K562 cells; assay type: functional
[14] = test system: SF-268; assay: Cytotoxicity against human SF268 cells; assay type: functional
[15] = test system: HOP-62; assay: Cytotoxicity against human HOP62 cells; assay type: functional
[16] = test system: OVCAR-4; assay: Cytotoxicity against human OVCAR4 cells; assay type: functional
[17] = test system: KM12; assay: Cytotoxicity against human KM12 cells; assay type: functional
[18] = test system: K562; assay: Cell cycle arrest in human K562 cells assessed as accumulation in S phase at 50 uM after 24 hrs by flow cytometry analysis; assay type: functional
[19] = test system: SK-OV-3; assay: Cytotoxicity against human SKOV3 cells; assay type: functional
[20] = test system: 786-0; assay: Cytotoxicity against human 786-0 cells; assay type: functional
[21] = test system: U-251; assay: Cytotoxicity against human U251 cells; assay type: functional
[22] = test system: K562; assay: Cell cycle arrest in human K562 cells assessed as accumulation in G2/M phase at 20 uM after 24 hrs by flow cytometry analysis; assay type: functional
[23] = test system: UO-31; assay: Cytotoxicity against human UO31 cells; assay type: functional
[24] = test system: UACC-62; assay: Cytotoxicity against human UACC62 cells; assay type: functional
[25] = test system: SW-620; assay: Cytotoxicity against human SW620 cells; assay type: functional
[26] = test system: K562; assay: Cell cycle arrest in human K562 cells assessed as accumulation in S phase at 10 uM after 24 hrs by flow cytometry analysis; assay type: functional
[27] = test system: NCI-H460; assay: Cytotoxicity against human NCI-H460 cells; assay type: functional
[28] = test system: COLO 205; assay: Cytotoxicity against human COLO205 cells; assay type: functional
[29] = test system: HCT-116; assay: Cytotoxicity against human HCT116 cells; assay type: functional
[30] = test system: K562; assay: Inhibition of G2/M phase related Cyclin B protein expression in human K562 cells at 20 uM by Western blotting analysis; assay type: functional, cell-based
[31] = test system: OVCAR-3; assay: Cytotoxicity against human OVCAR-3 cells; assay type: functional
[32] = test system: K562; assay: Cell cycle arrest in human K562 cells assessed as accumulation in G2/M phase at 50 uM after 24 hrs by flow cytometry analysis; assay type: functional
[33] = test system: NCI-H23; assay: Cytotoxicity against human NCI-H23 cells; assay type: functional
[34] = test system: HCC 2998; assay: Cytotoxicity against human HCC2998 cells; assay type: functional
[35] = test system: MDA-MB-231; assay: Cytotoxicity against human MDA-MB-231 cells; assay type: functional
[36] = test system: SF-539; assay: Cytotoxicity against human SF539 cells; assay type: functional
[37] = test system: ACHN; assay: Cytotoxicity against human ACHN cells; assay type: functional
[38] = test system: K562; assay: Cell cycle arrest in human K562 cells assessed as accumulation in G0/G1 phase at 20 uM after 24 hrs by flow cytometry analysis; assay type: functional
[39] = test system: RXF 393; assay: Cytotoxicity against human […] cells; assay type: functional
[40] = test system: K562; assay: Cell cycle arrest in human K562 cells assessed as accumulation in G0/G1 phase at 50 uM after 24 hrs by flow cytometry analysis; assay type: functional
[41] = test system: K562; assay: Cell cycle arrest in human K562 cells assessed as accumulation in Sub-G1 phase at 10 uM after 24 hrs by flow cytometry analysis; assay type: functional
[42] = test system: PC-3; assay: Cytotoxicity against human PC3 cells; assay type: functional
[43] = test system: A549; assay: Cytotoxicity against human A549 cells; assay type: functional
[44] = test system: K562; assay: Cell cycle arrest in human K562 cells assessed as accumulation in Sub-G1 phase at 50 uM after 24 hrs by flow cytometry analysis; assay type: functional
[45] = test system: K562; assay: Cell cycle arrest in human K562 cells assessed as accumulation in Sub-G1 phase at 20 uM after 24 hrs by flow cytometry analysis; assay type: functional
[46] = test system: NCI-H522; assay: Cytotoxicity against human NCI-H522 cells; assay type: functional
[47] = test system: LOX IMVI; assay: Cytotoxicity against human LOXIMVI cells; assay type: functional
[48] = Cytotoxicity against human […] cells; assay type: functional
[49] = Cytotoxicity against human Hs 578T cells; assay type: functional
[50] = test system: K562; assay: Cell cycle arrest in human K562 cells assessed as accumulation in G0/G1 phase at 10 uM after 24 hrs by flow cytometry analysis; assay type: functional
[51] = test system: OVCAR-5; assay: Cytotoxicity against human OVCAR5 cells; assay type: functional
[52] = test system: HCT-15; assay: Cytotoxicity against human HCT15 cells; assay type: functional
[53] = test system: MOLT-4; assay: Cytotoxicity against human MOLT4 cells; assay type: functional
[54] = test system: NCI-H226; assay: Cytotoxicity against human NCI-H226 cells; assay type: functional
[55] = test system: NCI/ADR-RES; assay: Cytotoxicity against human NCI/ADR-RES cells; assay type: functional
[56] = test system: SK-MEL-5; assay: Cytotoxicity against human SK-MEL-5 cells; assay type: functional
[57] = test system: K562; assay: Cell cycle arrest in human K562 cells assessed as accumulation in G2/M phase at 10 uM after 24 hrs by flow cytometry analysis; assay type: functional
[58] = test system: UACC-257; assay: Cytotoxicity against human UACC257 cells; assay type: functional
[59] = test system: EKVX; assay: Cytotoxicity against human EKVX cells; assay type: functional
[60] = test system: SNB-19; assay: Cytotoxicity against human SNB19 cells; assay type: functional
[61] = test system: T47D; assay: Cytotoxicity against human T47D cells; assay type: functional
[62] = test system: HL-60; assay: Cytotoxicity against human HL60 cells; assay type: functional
[63] = test system: HT-29; assay: Cytotoxicity against human HT-29 cells; assay type: functional
[64] = test system: MCF7; assay: Cytotoxicity against human MCF7 cells; assay type: functional
[65] = read-out: LC50 (the source's name)

## C(#Cc1ccccc1C#Cc1ccccn1)c1ccc(OCCCCCCOc2ccc(C#Cc3ccccc3C#Cc3ccccn3)cc2)cc1
[1]
  GI50: 0.04 µM
[1]; [65]
  CC50: > 50 µM
[2]
  GI50: 7.47 µM
[2]; [65]
  CC50: 41.6 µM
[3]
  GI50: 1.24 µM
[3]; [65]
  CC50: 15.8 µM
[4]
  Activity: Active
[5]
  GI50: 5.42 µM
[5]; [65]
  CC50: 23.8 µM
[6]
  GI50: 5.13 µM
[6]; [65]
  CC50: 31.3 µM
[7]
  GI50: 3.45 µM
[7]; [65]
  CC50: 22.7 µM
[8]
  GI50: 6.14 µM
[8]; [65]
  CC50: 24.9 µM
[9]
  GI50: 6.55 µM
[9]; [65]
  CC50: 32.7 µM
[10]
  GI50: 1.54 µM
[10]; [65]
  CC50: 21.7 µM
[11]
  GI50: 5.73 µM
[11]; [65]
  CC50: 24.3 µM
[12]
  Activity: 59.7%
[13]
  GI50: 1.38 µM
[13]; [65]
  CC50: 22.8 µM
[14]
  GI50: 3.63 µM
[14]; [65]
  CC50: 22.7 µM
[15]
  GI50: 6.31 µM
[15]; [65]
  CC50: 38.8 µM
[16]
  GI50: 1.91 µM
[16]; [65]
  CC50: 23.4 µM
[17]
  GI50: 1.38 µM
[17]; [65]
  CC50: 20.8 µM
[18]
  Activity: 52.1%
[19]
  GI50: 7.05 µM
[19]; [65]
  CC50: 42 µM
[20]
  GI50: 7.45 µM
[20]; [65]
  CC50: > 50 µM
[21]
  GI50: 5.63 µM
[21]; [65]
  CC50: 24.1 µM
[22]
  Activity: 26.6%
[23]
  GI50: 8.51 µM
[23]; [65]
  CC50: > 50 µM
[24]
  GI50: 0.47 µM
[24]; [65]
  CC50: 16.4 µM
[25]
  GI50: 4 µM
[25]; [65]
  CC50: 22.7 µM
[26]
  Activity: 49.2%
[27]
  GI50: 1.69 µM
[27]; [65]
  CC50: 18.7 µM
[28]
  GI50: 8.18 µM
[28]; [65]
  CC50: 30.9 µM
[29]
  GI50: 8.69 µM
[29]; [65]
  CC50: > 50 µM
[30]
  Activity: Active
[31]
  GI50: 2.14 µM
[31]; [65]
  CC50: 21.3 µM
[32]
  Activity: 24.9%
[33]
  GI50: 7.97 µM
[33]; [65]
  CC50: > 50 µM
[34]
  GI50: 7.21 µM
[34]; [65]
  CC50: 26.9 µM
[35]
  GI50: 2.67 µM
[35]; [65]
  CC50: 23.5 µM
[36]
  GI50: 2.38 µM
[36]; [65]
  CC50: 21.3 µM
[37]
  GI50: 1.34 µM
[37]; [65]
  CC50: 19.6 µM
[38]
  Activity: 13.7%
[39]
  GI50: 7.65 µM
[39]; [65]
  CC50: 27.9 µM
[40]
  Activity: 23%
[41]
  Activity: 8.57%
[42]
  GI50: 4.46 µM
[42]; [65]
  CC50: 29.2 µM
[43]
  GI50: 6.41 µM
[43]; [65]
  CC50: 43.2 µM
[44]
  Activity: 15.54%
[45]
  Activity: 8.77%
[46]
  GI50: 2.87 µM
[46]; [65]
  CC50: 38.4 µM
[47]
  GI50: 0.27 µM
[47]; [65]
  CC50: 18.4 µM
[48]
  GI50: 0.62 µM
[48]; [65]
  CC50: > 50 µM
[49]
  GI50: 5.41 µM
[49]; [65]
  CC50: 34.6 µM
[50]
  Activity: 15%
[51]
  GI50: 3.56 µM
[51]; [65]
  CC50: 23.4 µM
[52]
  GI50: 2.78 µM
[52]; [65]
  CC50: 22 µM
[53]
  GI50: 0.37 µM
[53]; [65]
  CC50: 28 µM
[54]
  GI50: 6.53 µM
[54]; [65]
  CC50: 30.3 µM
[55]
  GI50: 2.3 µM
[55]; [65]
  CC50: > 50 µM
[56]
  GI50: 2.3 µM
[56]; [65]
  CC50: 20.5 µM
[57]
  Activity: 35.8%
[58]
  GI50: 7.11 µM
[58]; [65]
  CC50: 31.4 µM
[59]
  GI50: 4.33 µM
[59]; [65]
  CC50: 22.9 µM
[60]
  GI50: 6 µM
[60]; [65]
  CC50: 26.2 µM
[61]
  GI50: 2.35 µM
[61]; [65]
  CC50: > 50 µM
[62]
  GI50: 0.09 µM
[62]; [65]
  CC50: 2.7 µM
[63]
  GI50: 7.89 µM
[63]; [65]
  CC50: 27 µM
[64]
  GI50: 1.91 µM
[64]; [65]
  CC50: 21.8 µM

## COc1cc2c(c(OC)c1OC)-c1ccc(OC)c(=O)cc1[C@@H](NC(C)=O)CC2 [COLCHICINE]
[26]
  Activity: 16.6%
[41]
  Activity: 14.59%
[50]
  Activity: 8.8%
[57]
  Activity: 74.6%
